# Data reported in US6413948B1, “Pharmaceutical compositions and methods of effecting a neuronal activity in an animal using naaladase inhibitors” (Guilford Pharmaceuticals Inc., priority 1996, dated 2002).
# What was measured:
# [1] = test system: stroke-induced rise in brain glutamate levels; test: In vivo assay on stroke-induced rise in brain glutamate levels (microdialysis); design: species or system Sprague Dawley rats; conditions: rat
# From the text: Male Sprague Dawley rats (270-330 g, n=5-6 per group) were implanted with concentric microdialysis probes similar to previously described procedures (Britton et al., J. Neurochem., Vol. 67, pp. 324-329 (1996)). In brief, under halothane anaesthesia, probes (constructed in-house using Cuprophane capillary membrane; 10K mw cut off; 2 mm dialyzing length) were implanted into the frontal cortex (AP=+3.5; ML=3; DIV=3), caudate nucleus (AP=0; ML=3; DV=6.6), and parietal cortex (AP=−2; ML=5; DV=3) (coordinates in mm relative to bregma and dura, respectively), regions believed to represent core and penumbral areas of ischemia-induced injury. Glutamate levels in dialysate were determined using precolumn o-phthaldialdehyde derivatization, followed by HPLC with fluorometric detection.
# Following a 60 minute stabilization period, dialysis samples were collected every 20 minutes. After collecting 3 baseline samples, the rats were anaesthetized with halothane and subjected to temporary ischemia using the filament method of MCAO (Britton et al., Life Sciences, Vol. 60, No. 20, pp. 1729-1740 (1997)). In brief, the right external carotid artery (ECA) was exposed and its branches coagulated. A 3-0 monofilament nylon suture was introduced into the internal carotid artery via an arteriotomy in the ECA and advanced until it lodged in the proximal region of the anterior cerebral artery, thus occluding the origin of the MCA. The endovascular suture was retracted to allow reperfusion 2 hours after occlusion.
# Body temperature was maintained normothermic throughout stroke surgery and reperfusion procedures. […] Dialysis samples were collected every 20 minutes from unanesthetized rats.
# [2] = test system: Sprague-Dawley rats, 2 hour transient middle cerebral artery occlusion (MCAO); test: In vivo assay on brain injury following MCAO in Sprague-Dawley rats; conditions: 100 mg/kg IP then 20 mg/kg/hr IV for 4 hours
# Method: In the control group (n=8), the rats received an IP injection of saline 30 minutes post-occlusion followed by IV saline infusion at a rate of 0.5 ml/hr. […] There was a 15 minute delay between IP and IV treatments for each rat. Twenty two hours following the reperfusion, the rats were euthanized and their brains were removed. Seven coronal sections (2 mm thick) were taken and stained with 1% solution of 2,3,5-triphenyltetraxolium chloride (TTC) for 20 minutes and then fixed in 10% formalin. The anterior and posterior surface of the most rostral brain section and the posterior surface of each of the other 6 sections were imaged. The quantification of infarct size of each brain was obtained using a computer aided-digital imaging analysis system (LOATS). The brain regions completely lacking TTC-staining were characterized as representative of infarcted tissue. The total infarct volume for each rat was calculated by numeric integration of the respective sequential brain areas.
# Male Sprague-Dawley rats (260-320 g) were used. Prior to the experiment, the rats were individually housed and allowed free access to food and water. Each rat received two surgeries: jugular vein cannulation for IV infusion and MCAO. During surgeries, the rat was anesthetized with […] delivered in oxygen via an inhalation mask. The body temperature was monitored and regulated at normothermic level using a homeothermic heating system. First, a PE-50 polyethylene catheter was inserted into the right jugular vein. One hour later, the rat was reanesthetized for MCAO surgery. The MCAO was achieved using the endovascular suture method described by Long et al., Stroke, Vol. 20, pp. 84-91 (1989). Specifically, the right external carotid artery (ECA) was exposed, coagulated and transected. A 3-0 monofilament nylon suture with a blunted tip was introduced into the proximal stump of the ECA via an arteriotomy and advanced 20 mm from the carotid bifurcation until it lodged in the proximal region of the anterior cerebral artery, thereby occluding the origin of the MCA. The rats were allowed to wake up; 2 hours later, the rats were reanesthetized for reperfusion, during which the nylon suture was retracted to the stump of the ECA allowing blood recirculation to the MCA.
# [3] = test system: cortical cell cultures; test: In vitro assay of NAALADase inhibitors on ischemia (potassium cyanide and 2-deoxyglucose, LDH release); assay type: cell-based, rats
# Method: The methods for this assay are described in detail below.
# Dissociated cortical cell cultures are prepared using the papain-dissociation method of Heuttner and Baughman (1986) as modified by Murphy and Baraban (1990). […] Fetuses of embryonic day 17 are removed from timed pregnancy rats (Harlan Sprague Dawley). The cortex is rapidly dissected out in Dulbecco's phosphate-buffered saline, stripped of meninges, and incubated in a papain solution for 15 minutes at 37° C. The tissue is then mechanically triturated and pelleted at 500 g (1000-2000 rpm on swinging bucket Beckman). The pellet is resuspended in a DNAase solution, triturated with a 10 ml pipette ×15-20, layered over a “10×10” solution containing albumin and trypsin inhibitor (see TABLE VII for an example of a “10×10” solution), repelleted, and resuspended in a plating medium containing 10% fetal bovine serum (HyClone A-1111-L), 5% heat-inactivated Equine serum (HyClone A-3311-L), and 84% modified Earle's basal medium (MEM) (Gibco 51200-020) with high glucose (4.5 g/L), and 1 g/L NaHCO3. Each 24-well plate is pretreated with poly-D-lysine (0.5 ml/well of 10 μg/ml) for 1 h and rinsed with water before plating. Cultures are plated at 2.5×10^6 cells/ml with each well of a 24 well plate receiving 500 μl/well. Alternatively, 35 mm dishes can be plated at 2 ml/dish, 6 well plates at 2 ml/well, or 12 well plates at 1 ml/well. After plating, 50% of the medium is changed every 3-4 days with growth serum containing 5% heat-inactivated Equine serum (HyClone A3111-L), 95% modified Earle's basal medium (MEM)(Gibco 51200-020), and 1% L-Glutamine (Gibco 25030-081). Experiments are performed after 21 days in cultures. Cultures are maintained in a 5% CO2 atmosphere at 37° C.
# Twenty-one to twenty-four days following the initial cortical cell plating, the experiment is performed. The cultures are washed three times in HEPES buffered saline solution containing no phosphate. […] At the end of 24 hours, the cultures are analyzed for release of the cytosolic enzyme lactate dehydrogenase (LDH), a standard measure of cell lysis. LDH measurements are performed according to the method of Koh and Choi, J. Neuroscience Methods (1987).
# Release of the cytosolic enzyme lactate dehydrogenase (LDH), a standard measure of cell lysis, is used to quantify injury (Koh and Choi, 1987). LDH-activity measurements are normalized to control for variability between culture preparations (Koh and Choi, 1987). […] This control measurement is subtracted from each experimental point. […] Only main effects of NAALADase inhibitors are considered; interactions between dose and condition are not examined statistically.
# [4] = test system: spinal cord organotypic cultures; test: Spinal cord culture model of ALS (THA toxicity, ChAT activity); assay type: cell-based, rats
# Method: Organotypic cultures were prepared from lumbar spinal cord of 8 day old rats, as described by Rothstein et al., J. Neurochem., Vol. 65, No. 2 (1995), and Rothstein et al., Proc. Natl. Acad. Sci. USA, Vol. 90, pp. 6591-6595 (July 1993). In brief, lumbar spinal cords were removed and sliced into 300 […] sections, and five slices were placed on Millipore CM semipermeable 30-mm-diameter membrane inserts. The inserts were placed on 1 ml of culture medium in 35-mm-diameter culture wells. Culture medium consisted of 50% minimal essential medium and phosphate-free HEPES (25 mM), 25% heat-inactivated horse serum, and 25% Hanks' balanced salt solution (GIBCO) supplemented with D-glucose (25.6 mg/ml) and glutamine (2 mM), at a final pH of 7.2. Antibiotic and antifungal agents were not used. Cultures were incubated at 37° C. in 5% CO2 containing humidified environment (Forma Scientific). Culture medium, along with any added pharmacological agents, was changed twice weekly.
# Drugs were incubated for an additional 13 to 20 days with the 100 μM THA. At the end of this period, cultures were collected assayed for ChAT activity as described below.
# To determine choline acetyltransferase (ChAT) activity, the spinal cord tissues in each dish (five slices) were pooled and frozen (−75° C.) until assay. ChAT activity was measured radiometrically by described methods using [^3H] acetyl-CoA (Amersham; Fonnum, 1975). Protein content of tissue homogenate was determined by a Coomassi Protein Assay kit (Pierce, Rockford, Ill.).
# [5] = test system: mouse sciatic nerve following cryolesion; test: In vivo assay on myelin formation following sciatic nerve cryolesion; design: species or system mice; conditions: silicone implants, approximately 2.5 μg/day, 15 days after surgery
# Method: Cryolesion of the mouse sciatic nerve was performed according to Koenig et al., Science, Vol. 268, pp. 1500-1503 (June 1995). In brief, each mouse was anesthetized and its sciatic nerve was exposed in the upper thigh and cryolesioned using a copper cryode (diameter=0.5 mm) that was dipped in liquid nitrogen and repeatedly applied to the upper part of the nerve. The extent of the lesion was approximately 1 mm.
# Fifteen days after surgery, the mice were sacrificed and their sciatic nerve segments were collected and processed for light microscopy and TEM analysis. Randomly chosen fields 2-3 mm distal to the lesion were qualitatively analyzed by light microscopy using 1-micrometer-thick toluidine blue stained cross sections and photographic images were captured.
# [6] = test system: mice; test: In vivo toxicity of NAALADase inhibitors in mice
# From the text: The mice were subsequently observed two times per day for 5 consecutive days.
compound,measurement,setting,value
O=C(O)CCC(CP(=O)(O)O)C(=O)O (stereo not drawn) [2-(phosphonomethyl)pentanedioic acid],concurrent glutamate changes in the parietal cortex,[1],completely prevented
same,glutamate in the frontal cortex,[1],no subsequent difference
same,stroke-induced extracellular glutamate increases in the striatum,[1],significantly attenuated
same,mean total brain infarct volume,[2]; 20 minute pre-treatment,122±26 mm^3
same,mean total brain infarct volume,[2]; 30 minute post-treatment,208±40 mm^3
same,mean total brain infarct volume,[2]; 60 minute post-treatment,125±57 mm^3
same,mean total brain infarct volume,[2]; 120 minute post-treatment,133±35 mm^3
same,% Toxicity,"[3]; ischemic insult, 100 pM",66.57 ± 4.38 (n = 5) %
same,% Toxicity,"[3]; ischemic insult, 1 nM",42.31 ± 9.34 (n = 5) %
same,% Toxicity,"[3]; ischemic insult, 10 nM",33.08 ± 9.62 (n = 5) %
same,% Toxicity,"[3]; ischemic insult, 100 nM",30.23 ± 9.43 (n = 5) %
same,% Toxicity,"[3]; ischemic insult, 1 μM",8.56 ± 8.22 (n = 5) %
same,% Toxicity,[3]; time of administration: Delayed 30 Minutes,31.49%
same,% Toxicity,[3]; time of administration: Exposure & Recovery,2.54%
same,% Toxicity,[3]; time of administration: Recovery Only,9.03%
same,ChAT Activity (% of Control),"[4]; Table XII, THA (100 μM) and 1 nM, 14 days",−23.9 ± 18.6 % of Control
same,ChAT Activity (% of Control),"[4]; Table XII, THA (100 μM) and 10 nM, 14 days",23.1 ± 12.5 % of Control
same,ChAT Activity (% of Control),"[4]; Table XII, THA (100 μM) and 100 nM, 14 days",87.5 ± 21.7 % of Control
same,ChAT Activity (% of Control),"[4]; Table XII, THA (100 μM) and 1 μM, 14 days",187.7 ± 32.8 % of Control
same,ChAT Activity (% of Control),"[4]; Table XII, THA (100 μM) and 10 μM, 14 days",128.7 ± 17.2 % of Control
same,protection of the cultures from THA toxicity (in words),"[4]; co-incubation with THA, 100 nM-10 μM",significantly protected
same,ChAT Activity (% of Control),[4]; compound alone,108 ± 18.4 % of Control
same,ChAT Activity (% of Control),[4]; compound and THA,121 + 18.8 % of Control
same,# of myelinated lamellae (ave. + SEM),[5],16.53 ± 0.65
same,% increase of myelinated lamellae over vehicle,[5],20%
same,toxicity to mice (in words),"[6]; 1 to 500 mg/kg, observed 5 days",non-toxic to mice
same,Survival Rate After 5 days (%),[6]; dose 1 mg/kg,100%
same,Survival Rate After 5 days (%),[6]; dose 5 mg/kg,100%
same,Survival Rate After 5 days (%),[6]; dose 10 mg/kg,100%
same,Survival Rate After 5 days (%),[6]; dose 30 mg/kg,100%
same,Survival Rate After 5 days (%),[6]; dose 100 mg/kg,100%
same,Survival Rate After 5 days (%),[6]; dose 300 mg/kg,100%
same,Survival Rate After 5 days (%),[6]; dose 500 mg/kg,66.7%
